The source of these data is PubChem BioAssay AID330 (DTP/NCI, 2004).

This experiment relates to P388 leukemia ip, CD2F1 mice, survival T/C. Nature of the experiment: NCI In Vivo Anticancer Drug Screen. Data for tumor model P388 Leukemia (intraperitoneal) in CD2F1 (CDF1) mice. Conditions: endpoint: median survival time, higher = longer survival. The gist of the method:
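Mice carrying the transplanted tumor received test compound or vehicle. Survival was recorded in each group, and the value is the treated-group measurement divided by that of the vehicle-treated control group.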

Where [1] appears, read: dose: 50.0 mg/kg/injection, schedule: Q01DX009 (ip), vehicle: saline.
Setting [2] is: dose: 100.0 mg/kg/injection, schedule: Q01DX009 (ip), vehicle: saline.
Setting [3] is: dose: 200.0 mg/kg/injection, schedule: Q01DX009 (ip), vehicle: saline.
The mark [4] stands for this setting: dose: 60.0 mg/kg/injection, schedule: Q01DX005 (ip), vehicle: saline.
[5] abbreviates: dose: 50.0 mg/kg/injection, schedule: Q01DX005 (ip), vehicle: saline with Tween-80.
Where [6] appears, read: dose: 100.0 mg/kg/injection, schedule: Q01DX005 (ip), vehicle: saline with Tween-80.
Where [7] appears, read: dose: 200.0 mg/kg/injection, schedule: Q01DX005 (ip), vehicle: saline with Tween-80.
Where [8] appears, read: dose: 50.0 mg/kg/injection, schedule: Q01DX009 (ip), vehicle: Klucel (hydroxypropylcellulose) (HPC).
Where [9] appears, read: dose: 100.0 mg/kg/injection, schedule: Q01DX009 (ip), vehicle: Klucel (hydroxypropylcellulose) (HPC).
[10] abbreviates: dose: 200.0 mg/kg/injection, schedule: Q01DX009 (ip), vehicle: Klucel (hydroxypropylcellulose) (HPC).
Where [11] appears, read: dose: 50.0 mg/kg/injection, schedule: Q01DX005 (ip), vehicle: Klucel (hydroxypropylcellulose) (HPC).
Setting [12] is: dose: 100.0 mg/kg/injection, schedule: Q01DX005 (ip), vehicle: Klucel (hydroxypropylcellulose) (HPC).
Where [13] appears, read: dose: 200.0 mg/kg/injection, schedule: Q01DX005 (ip), vehicle: Klucel (hydroxypropylcellulose) (HPC).

Where “and” joins values, the source holds several entries; their conditions need not be identical. Identical values can stand only once. Toxic doses and inconclusive results are not listed.

Regarding `COc1cc2c(cc1OC)-c1c(C)c3ccc(OC)c(NCCN)c3c[n+]1CC2`, the T/C is, setting by setting: (dose: 6.25 mg/kg/injection, schedule: Q04DX003 (ip), vehicle: water) 110 % of control; (dose: 12.5 mg/kg/injection, schedule: Q04DX003 (ip), vehicle: water) 91 % of control; (dose: 25.0 mg/kg/injection, schedule: Q04DX003 (ip), vehicle: water) 101 % of control.
On to `[CH3][Sb]([CH3])([CH3])([CH3])[I]`, for which the T/C by setting is: under setting [1], 98 % of control; under setting [2], 100 % of control; under setting [3], 95 % of control.
Regarding `c1ccc2c(SCCCCSc3c4ccccc4nc4ccccc34)c3ccccc3nc2c1`, the T/C was 113 % of control under setting [4]; 98 % of control (dose: 120.0 mg/kg/injection, schedule: Q01DX005 (ip), vehicle: saline); 89 % of control (dose: 240.0 mg/kg/injection, schedule: Q01DX005 (ip), vehicle: saline).
As to `C=C1C(=O)OC2C1C(OC(=O)/C(C)=C/C)CC1(CO1)C1C(O)C3OC3(C)C21O` (stereo not drawn), the T/C (dose: 25.0 mg/kg/injection, schedule: Q04DX002 (ip), vehicle: saline with Tween-80) was 117 % of control and the T/C (dose: 50.0 mg/kg/injection, schedule: Q04DX002 (ip), vehicle: saline with Tween-80) was 117 % of control.
With `O=C(CCn1[nH]c(=O)c(Cl)c(Cl)c1=O)NNc1ccc([N+](=O)[O-])cc1[N+](=O)[O-]`, the T/C reads like this: under setting [5], 92 % of control; under setting [6], 103 % of control; under setting [7], 92 % of control.
Regarding `CC(C)(C)OC(=O)NC(CCCCNC=O)C(=O)O` (stereo not drawn), the T/C by setting is: under setting [5], 95 % of control; under setting [6], 96 % of control; under setting [7], 104 % of control.
As for `COc1cc2c(cc1OC)C1=[N+](CCC1)CC2`, the T/C is, setting by setting: (dose: 15.0 mg/kg/injection, schedule: Q01DX005 (ip), vehicle: saline) 101 % of control; (dose: 30.0 mg/kg/injection, schedule: Q01DX005 (ip), vehicle: saline) 99 % of control; under setting [4], 99 % of control.
Take `O=c1[nH]cnc2c1ccn2C1OC(CO)C(O)C1O` (stereo not drawn): the T/C runs as follows: (dose: 3.0 mg/kg/injection, schedule: Q01DX009 (ip), vehicle: saline with Tween-80) 100 % of control; (dose: 6.0 mg/kg/injection, schedule: Q01DX009 (ip), vehicle: saline with Tween-80) 100 % of control; (dose: 12.0 mg/kg/injection, schedule: Q01DX009 (ip), vehicle: saline with Tween-80) 104 % of control.
For the compound `S=C1NCN(CC2CC2)CN1`, the T/C is, setting by setting: (dose: 60.0 mg/kg/injection, schedule: Q01DX005 (ip), vehicle: saline with Tween-80) 97 % of control; (dose: 120.0 mg/kg/injection, schedule: Q01DX005 (ip), vehicle: saline with Tween-80) 96 % of control; (dose: 240.0 mg/kg/injection, schedule: Q01DX005 (ip), vehicle: saline with Tween-80) 94 % of control.
For the compound `O=C(O)c1c[nH]c2cc(S(=O)(=O)O)ccc2c1=O`, the T/C reads like this: under setting [1], 95 % of control; under setting [2], 100 % of control; under setting [3], 92 % of control.
With `CC1CCN(C(=O)c2cc(Nc3ccnc4cc(Cl)ccc34)ccc2O)CC1`, the T/C (dose: 100.0 mg/kg/injection, schedule: Q04DX002 (ip), vehicle: saline with Tween-80) was 99 % of control; the T/C (dose: 200.0 mg/kg/injection, schedule: Q04DX002 (ip), vehicle: saline with Tween-80) is 99 % of control; the T/C (dose: 400.0 mg/kg/injection, schedule: Q04DX002 (ip), vehicle: saline with Tween-80) is 89 % of control.
Take `CCCCCNc1ccc(NCCCCC)c2c1C(=O)c1ccccc1C2=O`: the T/C is, setting by setting: under setting [1], 98 % of control; under setting [2], 99 % of control; under setting [3], 89 % of control.
On to `O=C1NCNC(=O)N1`, for which the T/C is 100 % of control (dose: 12.5 mg/kg/injection, schedule: Q04DX003 (ip), vehicle: saline with Tween-80); 98 % of control (dose: 25.0 mg/kg/injection, schedule: Q04DX003 (ip), vehicle: saline with Tween-80); 101 % of control (dose: 50.0 mg/kg/injection, schedule: Q04DX003 (ip), vehicle: saline with Tween-80); 98 % of control (dose: 100.0 mg/kg/injection, schedule: Q04DX003 (ip), vehicle: saline with Tween-80).
With `CC1(c2ccccc2)CCOCO1` (stereo not drawn), the T/C is 106 % of control under setting [5], 98 % of control under setting [6] and 104 % of control under setting [7].
For the compound `CCCCCC(CN(C)C)C(/C=C/c1ccc(Cl)c(Cl)c1)=N\O` (stereo not drawn), the T/C is, setting by setting: under setting [1], 116 % of control; under setting [2], 105 % of control.
On to `O=C(/C=C(/SS/C(=C/C(=O)c1ccccc1)c1ccccc1)c1ccccc1)c1ccccc1`, for which the T/C is, setting by setting: under setting [8], 98 % of control; under setting [9], 98 % of control; under setting [10], 91 % of control.
Consider `O=C(Nc1cc(NC(=O)n2nnc3ccccc32)c(Br)cc1Br)n1nnc2ccccc21`, for which the T/C reads like this: under setting [8], 91 % of control; under setting [9], 89 % of control; under setting [10], 97 % of control.
`CCCNC(=NC)c1ccc(NC(=O)c2ccc(C(=O)Nc3ccc(C(=NC)NCCC)cc3)cc2)cc1`: the T/C is 109 % of control (dose: 5.2 mg/kg/injection, schedule: Q01DX010 (ip), vehicle: saline) and 118 % of control (dose: 18.0 mg/kg/injection, schedule: Q01DX010 (ip), vehicle: saline).
Take `COc1cccc2c1C(=O)c1c(O)c3c(c(O)c1C2=O)CC(O)(C(C)=O)CC3OC1CC(N/C(C)=C/C(C)=O)C(O)C(C)O1` (stereo not drawn): the T/C (dose: 3.13 mg/kg/injection, schedule: Q04DX003 (ip), vehicle: distilled water + Tween-80) is 94 % of control; the T/C (dose: 6.25 mg/kg/injection, schedule: Q04DX003 (ip), vehicle: distilled water + Tween-80) is 103 % of control; the T/C (dose: 12.5 mg/kg/injection, schedule: Q04DX003 (ip), vehicle: distilled water + Tween-80) was 103 % of control; the T/C (dose: 25.0 mg/kg/injection, schedule: Q04DX003 (ip), vehicle: distilled water + Tween-80) is 115 % of control and 119 % of control; the T/C (dose: 200.0 mg/kg/injection, schedule: Q04DX003 (ip), vehicle: distilled water + Tween-80) is 102 % of control.
Take `CCC(C)(C)N=C(Nc1cccnc1)Nc1ncccn1`: the T/C (dose: 100.0 mg/kg/injection, schedule: Q04DX003 (ip), vehicle: saline) is 101 % of control and the T/C (dose: 200.0 mg/kg/injection, schedule: Q04DX003 (ip), vehicle: saline) is 92 % of control.
As to `C[N+](C)(C)C`, the T/C (dose: 2.5 mg/kg/injection, schedule: Q01DX009 (ip), vehicle: saline) was 110 % of control; the T/C (dose: 5.0 mg/kg/injection, schedule: Q01DX009 (ip), vehicle: saline) was 100 % of control; the T/C (dose: 10.0 mg/kg/injection, schedule: Q01DX009 (ip), vehicle: saline) is 100 % of control.
Regarding `O=c1c2ccccc2n(-c2ccccc2)c2cc(Cl)ccc12`, the T/C is 100 % of control under setting [11], 102 % of control under setting [12] and 100 % of control under setting [13].
Regarding `O=S(=O)(O/C(=C(\OS(=O)(=O)C(F)(F)F)c1ccccc1)c1ccccc1)C(F)(F)F`, the T/C was 97 % of control under setting [11], 98 % of control under setting [12] and 91 % of control under setting [13].
Regarding `CSC(=Nc1cccnc1)NC#N`, the T/C runs as follows: under setting [8], 96 % of control; under setting [9], 93 % of control; under setting [10], 92 % of control.
Regarding `CC1CC(OC(=O)CSC#N)CC(C)(C)C1` (stereo not drawn), the T/C (dose: 12.5 mg/kg/injection, schedule: Q01DX005 (ip), vehicle: saline with Tween-80) was 104 % of control; the T/C (dose: 25.0 mg/kg/injection, schedule: Q01DX005 (ip), vehicle: saline with Tween-80) was 101 % of control; the T/C under setting [5] was 101 % of control and 108 % of control.
With `COC(=O)C(Cl)Cc1cnc[nH]1` (stereo not drawn), the T/C was 92 % of control under setting [1], 98 % of control under setting [2] and 92 % of control under setting [3].
As to `CC1=C2CCC3(C)C(=C2OC1=O)C(C)=C(Cl)C(Br)C3Br` (stereo not drawn), the T/C reads like this: under setting [11], 102 % of control; under setting [12], 111 % of control; under setting [13], 118 % of control.
In the case of `NOCc1ccccc1CON`, the T/C reads like this: (dose: 37.5 mg/kg/injection, schedule: Q01DX009 (ip), vehicle: saline with Tween-80) 86 % of control; (dose: 75.0 mg/kg/injection, schedule: Q01DX009 (ip), vehicle: saline with Tween-80) 91 % of control; (dose: 150.0 mg/kg/injection, schedule: Q01DX009 (ip), vehicle: saline with Tween-80) 104 % of control.
